ChEMBL document CHEMBL5370625, “Design of Next-Generation DGAT2 Inhibitor PF-07202954 with Longer Predicted Half-Life” (ACS Med Chem Lett, 2023)

Tests used:
[1] = Oral bioavailability in Wistar Han rat; type: ADME, organism-based; details: in vivo
[2] = molecular target: T1, Diacylglycerol O-acyltransferase 2 (Homo sapiens, UniProt Q96PD7)
T1 sequence (Q96PD7 whole entry): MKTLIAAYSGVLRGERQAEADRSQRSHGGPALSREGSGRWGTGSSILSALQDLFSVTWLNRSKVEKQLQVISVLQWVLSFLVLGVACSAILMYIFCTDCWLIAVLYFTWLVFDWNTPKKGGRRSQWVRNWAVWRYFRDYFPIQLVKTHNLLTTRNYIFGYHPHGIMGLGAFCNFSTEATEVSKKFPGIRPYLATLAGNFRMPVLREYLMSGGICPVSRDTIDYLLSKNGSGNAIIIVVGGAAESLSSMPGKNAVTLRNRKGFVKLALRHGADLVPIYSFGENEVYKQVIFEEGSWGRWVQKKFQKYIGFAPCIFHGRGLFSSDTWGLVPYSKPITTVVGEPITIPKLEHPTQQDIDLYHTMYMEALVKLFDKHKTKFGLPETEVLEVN
Description: Inhibition of human DGAT2 using 14C decanoyl-CoA as a substrate pre incubated for 2 hrs followed by substrate addition measured after 40 mins by Trilux Microbeta reader analysis

[3] = Volume of distribution at steady state in Wistar Han rat at 1 mg/kg, iv; type: ADME, organism-based; details: in vivo, read-out: Vdss
[4] = Half life of the compound in Wistar Han rat at 1 mg/kg, iv; type: ADME, organism-based; details: in vivo
[5] = Clearance in Wistar Han rat plasma at 1 mg/kg,iv; type: ADME, organism-based
[6] = Renal clearance in Wistar Han rat at 1 mg/kg, iv; type: ADME, organism-based; details: in vivo
[7] = human, hepatocytes
Description: Apparent intrinsic clearance in human hepatocytes measured per million cells by LC-MS/MS analysis

[8] = physchem
Description: Dissociation constant, pKa of the compound

[9] = physchem; details: octanol/aqueous buffer, pH 7.4
[10] = in vitro; details: dog, MDCK
Description: Apparent permeability in MDCKII-LE cells incubated for 1.5 hrs

[11] = Oral bioavailability in cynomolgus monkey; type: ADME, organism-based, Macaca fascicularis; details: in vivo
[12] = Half life of the compound in po dosed cynomolgus monkey; type: ADME, organism-based, Macaca fascicularis; details: in vivo
[13] = Volume of distribution at steady state in cynomolgus monkey at 1 mg/kg, iv; type: ADME, organism-based, Macaca fascicularis; details: in vivo, read-out: Vdss
[14] = Half life of the compound in po dosed Wistar Han rat; type: ADME, organism-based; details: in vivo
[15] = Renal clearance in cynomolgus monkey plasma at 1 mg/kg, iv; type: ADME, organism-based, Macaca fascicularis
[16] = Apparent intrinsic clearance in human hepatocytes measured per million cells at 1 uM incubated for 4 hrs by relay method; type: ADME, cell-based, Hepatocyte
[17] = Half life of the compound in Beagle dog plasma at 1 mg/kg, iv; type: ADME, organism-based, Canis lupus familiaris
[18] = Half life of the compound in cynomolgus monkey at 1 mg/kg, iv; type: ADME, organism-based, Macaca fascicularis; details: in vivo
[19] = Volume of distribution at steady state in po dosed cynomolgus monkey; type: ADME, organism-based, Macaca fascicularis; details: in vivo
[20] = Volume of distribution at steady state in po dosed Wistar Han rat; type: ADME, organism-based; details: in vivo
[21] = Volume of distribution at steady state in Beagle dog plasma at 1 mg/kg, iv; type: ADME, organism-based, Canis lupus familiaris; details: read-out: Vdss
[22] = tested on: Rattus norvegicus; experiment: Hepatoprotective activity in western diet induced Sprague-Dawley rat model assessed as reduction in plasma triglycerides level at 100 mg/kg, po administered 7 days starting from day 14 post diet followed by single dose administration on day 8 and measured 2 hrs post last dose relative to control; type: functional; design: scale not given: the % may be the effect or the level left; details: time 8 day
[23] = Clearance in po dosed Wistar Han rat; type: ADME, organism-based; details: in vivo
[24] = Clearance in po dosed cynomolgus monkey plasma; type: ADME, organism-based, Macaca fascicularis
[25] = Clearance in Beagle dog plasma at 1 mg/kg,iv; type: ADME, organism-based, Canis lupus familiaris
[26] = Renal clearance in po dosed Wistar Han rat; type: ADME, organism-based; details: in vivo
[27] = Renal clearance in po dosed cynomolgus monkey; type: ADME, organism-based, Macaca fascicularis; details: in vivo
[28] = Renal clearance in Beagle dog plasma at 1 mg/kg,iv; type: ADME, organism-based, Canis lupus familiaris
[29] = molecular target: T2, Diacylglycerol O-acyltransferase 2 (Rattus norvegicus, UniProt Q5FVP8); experiment: Inhibition of rat DGAT2 using 14C decanoyl-CoA as a substrate pre incubated for 2 hrs followed by substrate addition measured after 40 mins by Trilux Microbeta reader analysis
T2 sequence (Q5FVP8 whole entry): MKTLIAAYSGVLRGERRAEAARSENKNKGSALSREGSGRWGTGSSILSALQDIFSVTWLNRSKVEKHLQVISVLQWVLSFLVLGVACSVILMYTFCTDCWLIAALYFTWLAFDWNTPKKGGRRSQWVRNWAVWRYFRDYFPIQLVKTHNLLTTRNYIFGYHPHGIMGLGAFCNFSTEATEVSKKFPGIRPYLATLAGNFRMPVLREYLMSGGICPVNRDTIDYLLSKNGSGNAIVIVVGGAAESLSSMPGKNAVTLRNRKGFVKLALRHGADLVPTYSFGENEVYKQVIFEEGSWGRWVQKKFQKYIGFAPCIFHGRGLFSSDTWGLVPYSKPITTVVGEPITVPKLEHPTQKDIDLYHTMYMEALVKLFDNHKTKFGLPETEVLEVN

[30] = tested on: Rattus norvegicus; experiment: Hepatoprotective activity in western diet induced Sprague-Dawley rat model assessed as reduction in liver triglycerides level at 100 mg/kg, po administered 7 days starting from day 14 post diet followed by single dose administration on day 8 and measured 2 hrs post last dose relative to control; type: functional; design: scale not given: the % may be the effect or the level left; details: time 8 day
[31] = tested on: Rattus norvegicus; experiment: Hepatoprotective activity in po dosed western diet induced Sprague-Dawley rat model assessed as reduction in plasma triglycerides level administered 7 days starting from day 14 post diet followed by single dose administration on day 8 and measured 2 hrs post last dose; type: functional, organism-based; details: dose 3-100 mg/kg, time 8.0 day
[32] = tested on: Rattus norvegicus; experiment: Hepatoprotective activity in po dosed western diet induced Sprague-Dawley rat model assessed as reduction in liver triglycerides level administered 7 days starting from day 14 post diet followed by single dose administration on day 8 and measured 2 hrs post last dose; type: functional, organism-based; details: dose 3-100 mg/kg, time 8.0 day
[33] = molecular target: T3, Diacylglycerol O-acyltransferase 1 (Homo sapiens, UniProt O75907); experiment: Inhibition of DGAT1 (unknown origin)
T3 sequence (O75907 whole entry): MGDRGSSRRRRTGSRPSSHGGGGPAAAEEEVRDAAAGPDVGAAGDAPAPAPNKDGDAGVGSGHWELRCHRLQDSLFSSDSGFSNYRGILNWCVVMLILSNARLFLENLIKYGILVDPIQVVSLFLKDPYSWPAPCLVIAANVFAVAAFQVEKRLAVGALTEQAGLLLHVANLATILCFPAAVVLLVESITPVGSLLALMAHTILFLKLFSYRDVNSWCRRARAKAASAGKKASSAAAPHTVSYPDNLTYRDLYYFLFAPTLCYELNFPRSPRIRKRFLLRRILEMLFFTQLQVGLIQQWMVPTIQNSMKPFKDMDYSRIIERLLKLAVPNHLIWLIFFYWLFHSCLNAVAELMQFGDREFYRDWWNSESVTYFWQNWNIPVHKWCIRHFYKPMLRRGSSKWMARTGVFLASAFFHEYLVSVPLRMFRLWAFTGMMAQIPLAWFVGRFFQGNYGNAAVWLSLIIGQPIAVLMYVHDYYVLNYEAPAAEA

[34] = tested on: Rattus norvegicus; experiment: Hepatoprotective activity in po dosed high sucrose diet induced Sprague-Dawley rat model assessed as reduction in plasma triglycerides level measured after 2 to 4 hrs post last dose; type: functional, organism-based; details: dose 10-100 mg/kg, time 2-4 hrs
[35] = tested on: Rattus norvegicus; experiment: Hepatoprotective activity in po dosed high sucrose diet induced Sprague-Dawley rat model assessed as reduction in liver triglycerides level measured after 2 to 4 hrs post last dose; type: functional, organism-based; details: dose 10-100 mg/kg, time 2-4 hrs

## CCOc1cccnc1Oc1cncc(-c2ncc(C(=O)N[C@@H]3CCNC3)cn2)c1
[1]
  bioavailability: < 1%
[2]
  IC50: 410 nM
[3]
  Vd: 4.1 L/kg
[4]
  half-life: 1.9 h
[5]
  clearance: 51 mL/min/kg
[6]
  CL renal: 5.2 mL/min/kg
[7]
  CLH(app): < 3 µL/min
[8]
  pKa: 9.2
[9]
  logD at 1 h: -0.15
[10]
  Papp at 1.5 h: 0.68 ×10⁻⁶ cm/s

## CCOc1cccnc1Oc1cncc(-c2ncc(C(=O)N[C@H]3CNC[C@H](F)C3)cn2)c1
[7]
  CLH(app): < 1.9 µL/min
[9]
  logD at 1 h: 1.3
[10]
  Papp at 1.5 h: 2.5 ×10⁻⁶ cm/s

## CCOc1cccnc1Oc1cncc(-c2ncc(C(=O)N[C@H]3CCNC3)cn2)c1
[2]
  IC50: 500 nM
[7]
  CLH(app): < 1.8 µL/min
[8]
  pKa: 9.2
[9]
  logD at 1 h: -0.9
[10]
  Papp at 1.5 h: 0.39 ×10⁻⁶ cm/s

## CCOc1cccnc1Oc1cncc(-c2ncc(C(=O)N[C@@H]3CNCC[C@H]3F)cn2)c1
[7]
  CLH(app): < 1.9 µL/min
[9]
  logD at 1 h: 1.4
[10]
  Papp at 1.5 h: 8.8 ×10⁻⁶ cm/s

## CCOc1cccnc1Oc1cncc(-c2ncc(C(=O)N[C@@H]3CNCCC3(F)F)cn2)c1
[7]
  CLH(app): 4.7 µL/min
[8]
  pKa: 6.4
[9]
  logD at 1 h: 1.8
[10]
  Papp at 1.5 h: 18 ×10⁻⁶ cm/s

## CCOc1cccnc1Oc1cncc(-c2ncc(C(=O)N[C@@H]3CNCC(F)(F)C3)cn2)c1
[7]
  CLH(app): 9.3 µL/min
[9]
  logD at 1 h: 2.3
[10]
  Papp at 1.5 h: 14 ×10⁻⁶ cm/s

## CCOc1cccnc1Oc1cncc(-c2ncc(C(=O)N[C@@H]3CNC[C@H](F)C3)cn2)c1 (racemic)
[2]
  IC50: 200 nM
[7]
  CLH(app): 6.6 µL/min
[8]
  pKa: 6.8
[9]
  logD at 1 h: 1.7
[10]
  Papp at 1.5 h: 13 ×10⁻⁶ cm/s

## CCOc1cccnc1Oc1cncc(-c2ncc(C(=O)NC3CCNCC3)cn2)c1
[2]
  IC50: 22000 nM
[8]
  pKa: 10.1
[9]
  logD at 1 h: -0.19
[10]
  Papp at 1.5 h: 1.3 ×10⁻⁶ cm/s

## CCOc1cccnc1Oc1cncc(-c2ncc(C(=O)N[C@H]3CCOC3)cn2)c1 [PF-06865571]
[11]
  bioavailability: 48%
[1]
  bioavailability: 31%
[12]
  half-life: 3.9 h
[13]
  Vd: 0.71 L/kg
[14]
  half-life: 1.4 h
[6]
  CL renal: < 0.1 mL/min/kg
[15]
  CL renal: < 0.1 mL/min/kg
[16]
  CLH(app): 3.9 µL/min
[9]
  logD at 1 h: 1.9
[10]
  Papp at 1.5 h: 19 ×10⁻⁶ cm/s

## CCOc1cccnc1Oc1cncc(-c2ncc(C(=O)N[C@@H]3CNCC[C@@H]3F)cn2)c1
[2]
  IC50: 16 nM
[7]
  CLH(app): < 1.9 µL/min
[8]
  pKa: 8
[9]
  logD at 1 h: 0.96
[10]
  Papp at 1.5 h: 4.7 ×10⁻⁶ cm/s

## CCOc1cccnc1Oc1cncc(-c2ncc(C(=O)N[C@H]3CC[C@@H](C(F)(F)F)NC3)cn2)c1 (relative stereo)
[2]
  IC50: 4.4 nM
[7]
  CLH(app): 38 µL/min
[8]
  pKa: 4.5
[9]
  logD at 1 h: 2.8
[10]
  Papp at 1.5 h: 30 ×10⁻⁶ cm/s

## CCOc1cccnc1Oc1cncc(-c2ncc(C(=O)N[C@@H]3CNC[C@@H](F)C3)cn2)c1
[11]
  bioavailability: 21%
[1]
  bioavailability: 12%
[12]
  half-life: 6.5 h
[17]
  half-life: 1.5 h
[18]
  half-life: 1.4 h
[19]
  Vdss: 1.6 L/kg
[20]
  Vdss: 2.7 L/kg
[21]
  Vd: 2.1 L/kg
[22]
  Activity: 71%
[4]
  half-life: 0.9 h
[23]
  CL/F: 64 mL/min/kg
[24]
  CL/F: 17 mL/min/kg
[25]
  clearance: 22 mL/min/kg
[26]
  CL renal: 7.5 mL/min/kg
[27]
  CL renal: 0.29 mL/min/kg
[28]
  CL renal: 5.5 mL/min/kg
[29]
  IC50: 17 nM
[30]
  Activity: 48%
[31]
  Activity: Dose-Dependent Effect
[32]
  Activity: Dose-Dependent Effect
[16]
  CLH(app): 0.99 µL/min
[33]
  IC50: > 50000 nM
[34]
  Activity: Dose-Dependent Effect
[35]
  Activity: Dose-Dependent Effect
[9]
  logD at 1 h: 1.4
[10]
  Papp at 1.5 h: 2.9 ×10⁻⁶ cm/s
